# According to US4656269A, “Histidine derivatives” (Kissei Pharmaceutical Co., Ltd., priority 1986, dated 1987):
# What was measured:
# [1] = target: T1, renin in human high renin plasma (Homo sapiens, UniProt P00797); assay: Renin inhibitory effect in a human high renin plasma (angiotensin I by radioimmunoassay); format: biochemical; settings: 60 minutes, 37° C., read-out: IC50 (molar concentration)
# T1 construct: 500 μl of human high renin plasma; from tissue; host or cells: human high renin plasma
# T1 sequence (P00797 67-406): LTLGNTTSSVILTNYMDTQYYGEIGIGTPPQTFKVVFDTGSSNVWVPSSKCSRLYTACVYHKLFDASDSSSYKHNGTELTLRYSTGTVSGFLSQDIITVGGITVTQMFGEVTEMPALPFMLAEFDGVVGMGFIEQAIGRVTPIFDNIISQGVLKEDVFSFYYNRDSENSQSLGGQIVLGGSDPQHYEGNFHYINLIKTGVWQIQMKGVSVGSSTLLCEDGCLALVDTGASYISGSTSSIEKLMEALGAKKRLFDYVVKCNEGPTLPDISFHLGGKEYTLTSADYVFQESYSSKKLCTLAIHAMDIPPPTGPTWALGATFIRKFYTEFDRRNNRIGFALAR
# human renin = target: T2, human renin (Homo sapiens, UniProt P00797); assay: Human renin-sheep renin substrate reaction system in vitro (angiotensin I by radioimmunoassay); format: biochemical; settings: pH 7.4, 15 minutes, 37° C., read-out: IC50 (molar concentration)
# T2 sequence (P00797 67-406): T1 sequence (P00797 67-406)
# Description: Human renin-sheep renin substrate reaction system in vitro
# To a mixture containing 200 μl of a 125 mM pyrophosphate buffer (pH 7.4), 25 μl of a 20 mM aqueous solution of L-phenylalanyl-L-alanyl-L-prolin as an angiotensin cnverting enzyme inhibitor, 50 μl of semipurified sheep renin substrate (2000 ng angiotensin I/ml), 50 μl of dimethyl sulfoxide solution of an amino acid compound of the present invention and 150 μl of deionized water was added 25 μl of purified human renin (20-30 ng angiotensin I/ml/hr. The mixture was incubated for 15 minutes on a water bath at 37° C., and the reaction mixture was allowed to stand for 5 minutes on a water bath at 100° C. to stop the reaction. After cooling, 200 μl of the solution were taken up and the amount of angiotensin I produced by the addition of renin was determined by radiommunoassay. The inhibitory effect was calculated by the following equation.
# As a control, the same procedure as above was carried out by using 50 μl of dimethyl sulfoxide alone in place of the 50 μl of dimethyl sulfoxide solution containing an amino acid compound of the present invention.
IC50 [1],IC50 (human renin),SMILES
25 nM,78 nM,"COC(=O)C(O)[C@H](CC(C)C)NC(=O)[C@H](Cc1c[nH]cn1)NC(=O)C(CC(=O)N(C)C)Cc1cccc2ccccc12 (mixture of isomers) [Methyl (2RS, 3S)-3-{N-[2-(1-naphthylmethyl)-3-(dimethylcarbamoyl)propionyl]-L-histidyl}amino-2-hydroxy-5-methylhexanoate]"
–,66 nM,CC(C)C[C@H](NC(=O)[C@H](Cc1c[nH]cn1)NC(=O)C(CC(=O)N1CCOCC1)Cc1cccc2ccccc12)[C@@H](O)CC(=O)OC(C)C (stereo partly drawn) [Isopropyl N-[2-(1-naphthylmethyl)-3-(morphlinocarbonyl)propionyl]-L-histidylstatinate]
150 nM,–,COC(=O)C[C@H](O)[C@H](CC(C)C)NC(=O)[C@H](Cc1c[nH]cn1)NC(=O)C(CC(=O)N1CCOCC1)Cc1cccc2ccccc12 (stereo partly drawn) [Methyl N-[2-(1-naphthylmethyl)-3-(morpholinocarbonyl)propionyl]-L-histidylstatinate]
